{"source": "patent US20130195925A1", "about": "“ANTI AGING APPLICATION AND METHOD FOR TREATING AGING” (VASKIN, LLC, priority 2011, published 2013)", "origin": "cited, not measured here", "key": {"[1]": {"system": "co-culture model of melanocytes and keratinocytes", "conditions": "fluorochrome transfer, flow cytometry"}, "[2]": {"conditions": "thought to be; compared with vitamin E"}, "wounds": {"system": "wounds", "conditions": "solution containing 5%"}, "stem cell factor": {"system": "stem cell factor", "conditions": "human keratinocyte cell culture"}, "[3]": {"conditions": "in vivo"}, "[4]": {"conditions": "in vivo", "remark": "listed apart in the source"}, "[5]": {"system": "UVB-induced pigmented skins of brownish guinea pigs", "conditions": "0.5% Glabridin solution applied topically; backs of brownish guinea pigs"}}}
{"smiles": "NC(=O)c1cccnc1", "note": "[Niacinamide]", "values": [{"measurement": "downregulation of the amount of melanosomes transferred", "setting": "[1]", "result": "35%-68%"}]}
{"smiles": "O=C(O[C@@H]1Cc2c(O)cc(O)cc2O[C@@H]1c1cc(O)c(O)c(O)c1)c1cc(O)c(O)c(O)c1", "note": "[EGCG, Epigallocatechin galate]", "values": [{"measurement": "power for neutralizing free radicals relative to vitamin E", "setting": "[2]", "result": 200, "unit": "times"}]}
{"smiles": "COc1cc(CCC(=O)CC(=O)CCc2ccc(O)c(OC)c2)ccc1O", "note": "[Tetrahydrocurcumin]", "values": [{"measurement": "safety for topical use", "result": "no irritant or sensitization side effects"}]}
{"smiles": "CC(=O)Oc1c(C)c(C)c2c(c1C)CCC(C)(CCC[C@H](C)CCC[C@H](C)CCCC(C)C)O2", "note": "(some centres unmarked) [Vitamin E acetate, Tocopheryl acetate]", "values": [{"measurement": "wound healing time", "setting": "wounds", "result": "decreased the healing time required"}]}
{"smiles": "C=CCCCCCCCCC(=O)N[C@@H](Cc1ccccc1)C(=O)O", "note": "[Undecylenoyl phenylalanine]", "values": [{"measurement": "gene expression and protein release of stem cell factor", "setting": "stem cell factor", "result": "suppresses"}]}
{"smiles": "O=c1cc(CO)occ1O", "note": "[kojic acid]", "values": [{"measurement": "carcinogenic properties", "setting": "[3]", "result": "may have some carcinogenic properties"}, {"measurement": "dermatitis", "setting": "[4]", "result": "can lead to dermatitis in some people"}]}
{"smiles": "CC1(C)C=Cc2c(ccc3c2OC[C@@H](c2ccc(O)cc2O)C3)O1", "note": "[Glabridin]", "values": [{"measurement": "pigmentation induced by UVB radiation", "setting": "[5]", "result": "significantly reduced pigmentation"}]}
